Data from patent US6586613B1, “Substituted tetrahydronaphthaline and analogous compounds” (Bayer Aktiengellschaft, priority 1997, dated 2003).

What was measured:
transgenic hCETP mice = assay: In vivo activity in transgenic hCETP mice (lipoproteins and triglycerides in serum); settings: 30 ppm via the feed, after one week
Description: In vivo Activity in Transgenic hCETP Mice
The substances to be tested were administered to transgenic mice, which were bred in our own laboratory (Dinchuck, Hart, Gonzalez, Karmann, Schmidt, Wirak; BBA (1995), 1295, 301), via the feed. Prior to the beginning of the experiment, blood samples were taken retro-orbitally from the mice to determine cholesterol and triglycerides in the serum. The serum was obtained as described above for hamsters by incubation at 4° C. overnight and subsequent centrifugation at 6000×g. After one week, blood samples were again taken from the mice to determine lipoproteins and triglycerides. The change of the measured parameters are expressed as a change in percent based on the initial value.

[1] = molecular target: T1, cholesterol ester transfer protein (CETP) (Homo sapiens, UniProt P11597); assay: CETP inhibition test (transfer of 3H-cholesterol ester from HDL to biotinylated LDL, SPA); type: biochemical; settings: CETP partially purified from human plasma; 37° C., 18 h
T1 construct: CETP is obtained in partially purified form from human plasma by differential centrifugation and column chromatography; from tissue; host or cells: human plasma
T1 sequence (P11597 18-493): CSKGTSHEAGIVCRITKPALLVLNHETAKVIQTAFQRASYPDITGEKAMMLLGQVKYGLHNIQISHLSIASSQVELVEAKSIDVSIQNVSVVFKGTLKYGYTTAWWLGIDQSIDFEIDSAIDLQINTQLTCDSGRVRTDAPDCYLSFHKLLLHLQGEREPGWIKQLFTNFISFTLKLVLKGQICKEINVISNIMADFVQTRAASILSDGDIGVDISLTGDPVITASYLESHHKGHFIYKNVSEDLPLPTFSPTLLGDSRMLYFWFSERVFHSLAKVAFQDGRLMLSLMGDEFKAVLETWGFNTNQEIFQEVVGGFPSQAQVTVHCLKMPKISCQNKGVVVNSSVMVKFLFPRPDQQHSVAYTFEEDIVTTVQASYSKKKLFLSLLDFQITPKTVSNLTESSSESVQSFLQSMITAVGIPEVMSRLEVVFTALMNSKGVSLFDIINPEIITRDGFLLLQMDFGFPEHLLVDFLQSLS
Description: CETP is obtained in partially purified form from human plasma by differential centrifugation and column chromatography and used for the test. For this purpose, human plasma is adjusted to a density of 1.21 g per ml using NaBr and centrifuged at 50,000 rpm at 4° C. for 18 h. The bottom fraction (d>1.21 g/ml) is applied to a Sephadex®Phenyl-Sepharose 4B (Pharmacia) column, washed with […]/0.001 M TrisHCl pH 7.4 and subsequently eluted using dist. water. The CETP-active fractions are pooled, dialysed against 50 mM Na-acetate pH 4.5 and applied to a CM-Sepharose® (Pharmacia) column. Elution is subsequently carried out using a linear gradient (0-1 M NaCl). The pooled CETP fractions are dialysed against 10 mM TrisHCl pH 7.4 and subsequently purified further by chromatography over a Mono Q® column (Pharmacia).
Preparation of Radioactively Labelled HDL
50 ml of fresh human EDTA plasma is adjusted to a density of 1.12 using NaBr and centrifuged at 4° C. in a Ty 65 rotor at 50,000 rpm for 18 h. The upper phase is used to obtain cold LDL. […]
To assess the CETP activity, the transfer of ^3H-cholesterol ester from human HD-lipoproteins to biotinylated LD-lipoproteins is measured.
The reaction is terminated by addition of Streptavidin-SPA® beads (Amersham) and the transferred radioactivity is directly measured in a liquid scintillation counter. […]

CETP activity = assay: Ex vivo activity: CETP activity in serum of treated hamsters; settings: Syrian gold hamsters; for ED50 for ex vivo activity: CETP activity in serum; for % inhibition at 3 mg/kg: ex vivo CETP activity in serum
Description: Ex vivo Activity of the Compounds According to the Invention
Syrian gold hamsters, which have been bred in our own laboratory, are anaesthetized after 24 hours of fasting (0.8 mg/kg of atropine, 0.8 mg/kg of Ketavet® s.c., 30′ later 50 mg/kg of nembutal i.p.). The jugular vein is subsequently exposed and cannulated. The test substance is dissolved in a suitable solvent (usually adalate placebo solution: 60 g of glycerol, 100 ml of H2O, ad 1000 ml PEG-400) and administered to the animals via a PE catheter, which is introduced into the jugular vein. The same volume of solvent without test substance is administered to the control animals. The vein is subsequently tied off and the wound is closed.
The test substances can also be administered p.o. by dissolving the substances in DMSO and suspending them in 0.5% tylose and administering them using a pharyngeal tube. Identical volumes of solvent without test substance are administered to the control animals.
At different intervals—up to 24 hours after the administration—blood samples are taken from the animals by puncture of the retro-orbital venous plexus (approximately 250 μl). Coagulation is completed by incubation at 4° C. overnight, and the samples are subsequently centrifuged at 6000×g for 10 minutes. The CETP activity is determined in the resulting serum using the modified CETP test. The transfer of ^3H-cholesterol ester from HD-lipoproteins to biotinylated LD-lipoproteins is measured as described above for the CETP test.
The reaction is terminated by addition of Streptavidin-SPA® beads (Amersham), and the transferred radioactivity is directly determined in a liquid scintillation counter.
The test protocol is carried out as described under “CETP test”. However, to test the sera, 10 μl of CETP are replaced by 10 μl of the appropriate serum samples. Corresponding incubations of sera of untreated animals serve as controls.
The activity that is transferred in the control experiments using control sera is classified as 100% transfer. The substance concentration at which this transfer is reduced by half is stated as the ED50 value.

Syrian gold hamsters = assay: In vivo activity: HDL increase after oral administration to hamsters; settings: perorally
Description: In vivo Activity of the Compounds According to the Invention
In experiments for assessing the oral activity on lipoproteins and triglycerides, test substance, dissolved in DMSO and suspended in 0.5% tylose, is administered perorally by means of a pharyngeal tube to Syrian gold hamsters which have been bred in our own laboratory. To determine the CETP activity, blood samples (approximately 250 μl) are taken by retro-orbital puncture prior to the start of the experiment. The test substances are subsequently administered perorally using a pharyngeal tube. Identical volumes of solvent without test substance are administered to the control animals. […]
Coagulation is completed by incubation at 4° C. overnight, and the samples are subsequently centrifuged at 6000×g for 10 minutes. The content of cholesterol and triglycerides in the resulting serum is assessed using modified commercially available enzyme tests (cholesterol enzymatic 14366 Merck, triglycerides 14364 Merck). […]
100 μl of serum dilution and 100 μl of test substance are transferred into 96-well-plates and incubated at room temperature for 10 minutes. The optical density is subsequently determined at a wavelength of 492 nm using an automatic plate reader.
The triglyceride and cholesterol concentrations of the samples are determined with the aid of a standard curve measured in parallel. […]

Compound | HDL, change in percent based on the initial value (transgenic hCETP mice) | LDL, change in percent based on the initial value (transgenic hCETP mice) [%] | Triglycerides, change in percent based on the initial value (transgenic hCETP mice) [%] | IC50 [1] [nM] | ED50 for ex vivo activity (CETP activity) [mg/kg] | % inhibition at 3 mg/kg (CETP activity) [%] | % HDL increase (Syrian gold hamsters; dose 2 × 0.3 mg/kg) | % HDL increase (Syrian gold hamsters; dose 2 × 1 mg/kg)
CC(C)c1cc2c(c(-c3ccc(F)cc3)c1[C@@H](F)c1ccc(C(F)(F)F)cc1)[C@@H](O)CC1(CCC1)C2 [Example 15, (S)-8-Hydroxy-1-(4-fluorophenyl)-2-[(S)-fluoro-(4-trifluoromethyl-phenyl)-methyl]-3-isopropyl-6-spiro-cyclobutyl-5,6,7,8-tetrahydronaphthalene] | +60% | −18 | −15 |  |  |  |  | 
O[C@H]1CC2(CCC2)Cc2cc(C3CCCC3)c([C@@H](F)c3ccc(C(F)(F)F)cc3)c(-c3ccc(F)cc3)c21 [Example 31] |  |  |  | 2.7 | <0.3 | 72.3 | +19% | 
CC(C)c1cc2c(c(-c3ccc(F)cc3)c1[C@@H](F)c1ccc(C(F)(F)F)cc1)[C@@H](O)CC(C)(C)C2 [Example 25] |  |  |  | 3 | <0.3 | 83.1 |  | +15%
